Patent publication US20120055467A1, “METERED-DOSE INHALER AND METHOD OF USING THE SAME” (CHIESI FARMACEUTICI S.P.A., priority 2010, published 2012)

Legend:
[1] = Andersen Cascade Impactor (ACI) evaluation of pMDI spray drug delivery characteristics; type: physicochemical
Description: Spray characteristics of the system were evaluated by an Andersen cascade impactor fitted with a USP throat (App. 1, USP 33). […] This was repeated twice. Pre- and post-shot weights were recorded. […] The solutions were analysed by using a UPLC/MS (Ultra Performance Liquid Chromatography/Mass Spectrometry) system for the determination of the drug deposition.

[2] = Plume duration measured with in-line PC microphone, dual orifice actuator; type: physicochemical; conditions: Ex 8, individual can
Description: For Example 8, plume duration was measured using an in-line PC microphone in conjunction with Audacity 1.2.6 software.
Formulation combinations 17a-18a and 17b-18b are fired through the dual orifice actuator, as shown at 121 in FIG. 17B. Plume duration was measured for the simultaneous actuation of two 25 μL valves and two 63 μL valves and compared with plume duration for the individual cans. […] The two formulation combinations were: […]

[3] = Ex 1, Dual MDI, Formulations 1+2, single 0.22 mm actuator orifice, mean, n=3
[4] = Ex 1, Dual MDI, Formulations 1+2, single 0.30 mm actuator orifice, mean, n=3
[5] = Ex 1, Standard MDI, single can, 0.22 mm actuator orifice, mean, n=3
[6] = Ex 1, Standard MDI, single can, 0.30 mm actuator orifice, mean, n=3
[7] = Ex 2/3, Standard MDI, single can, 0.22 mm orifice, mean, n=3
[8] = Ex 2, Dual MDI, Formulations 3+4, single 0.22 mm orifice, mean, n=2
[9] = Ex 4, Dual-MDI, Formulation 6 + Formulation 7 (HFA 134a), single 0.22 mm orifice, mean, n=2
[10] = Ex 4, Standard MDI, high ethanol (26% w/w) BDP 100 μg, 0.22 mm orifice, mean, n=2
[11] = Ex 6, dual can, BDP 25 μL + BUD 100 μL, single 0.22 mm orifice, mean, n=2
[12] = Ex 6, dual can, BDP 50 μL + BUD 50 μL, single 0.22 mm orifice, mean, n=2
[13] = Ex 6, dual can, BDP 100 μL + BUD 25 μL, single 0.22 mm orifice, mean, n=2
[14] = Ex 6, single can, 50 μg dose, metered volume 25 μL, 0.22 mm actuator, mean, n=2
[15] = Ex 6, single can, 50 μg dose, metered volume 50 μL, 0.22 mm actuator, mean, n=2
[16] = Ex 6, single can, 50 μg dose, metered volume 100 μL, 0.22 mm actuator, mean, n=2
[17] = Ex 7, Dual can, Formulations 15+16 simultaneously, dual orifice actuator, mean, n=2
[18] = Ex 7, Single can through dual orifice actuator, mean, n=2
[19] = Ex 9, Dual can, Formulations 17a+18a simultaneously, dual orifice actuator, mean, n=2
[20] = Ex 9, Single can through dual orifice actuator, mean, n=2
[21] = Ex 11, Dual can single orifice, Formulations 9+12, 0.30 mm orifice, mean, n=2
[22] = Ex 11, Single reservoir conventional MDI, 50/50, 0.30 mm orifice, mean, n=2
[23] = Ex 19, dual reservoir-single orifice prototype (FIG. 14B)
[24] = Ex 20, triple reservoir-single orifice prototype (FIG. 16B)

With `CCC(=O)OCC(=O)[C@@]1(OC(=O)CC)[C@@H](C)C[C@H]2[C@@H]3CCC4=CC(=O)C=C[C@]4(C)[C@@]3(Cl)[C@@H](O)C[C@@]21C` [BDP, Beclometasone dipropionate] the “Delivered Dose” value ([1]; Ex 1, Dual MDI, Formulations 1+2 (each BDP 50 μg/25 μl, 13% ethanol, 1.3% glycerol) mixed, single 0.22 mm actuator orifice, mean, n=3) was 99.3 µg, the “FPD ≦ 5 μm” value [1, 3] was 44.6 µg and the FPF [1, 3] was 45.0%. For the same molecule, the MMAD [1, 3] was 2.9 μm, the “Delivered Dose” value [1, 4] was 95.6 µg and the “FPD ≦ 5 μm” value [1, 4] was 27.1 µg. For the same molecule, the FPF [1, 4] was 28.3%, the MMAD [1, 4] was 3.0 μm and the “Delivered Dose” value ([1]; Ex 1, Standard MDI, single can BDP 100 μg/50 ul, 13% ethanol, 1.3% glycerol, 0.22 mm actuator orifice, mean, n=3) was 89.8 µg. The “FPD ≦ 5 μm” value [1, 5] was 41.9 µg, the FPF [1, 5] was 46.6% and the MMAD [1, 5] was 3.0 μm. For the same molecule, the “Delivered Dose” value [1, 6] was 89.1 µg, the “FPD ≦ 5 μm” value [1, 6] was 26.2 µg and the FPF [1, 6] was 29.4%. For the same molecule, the MMAD [1, 6] was 3.3 μm, the “Delivered Dose” value ([1]; Ex 2/3, Standard MDI, single can (BDP 100 μg/50 μl or formoterol fumarate 6 μg/50 μl), 0.22 mm orifice, mean, n=3) was 99.3 µg and the “FPD ≦ 5 μm” value [1, 7] was 44.6 µg. The FPF [1, 7] was 45.0%, the MMAD [1, 7] was 2.9 μm and the “Delivered Dose” value ([1]; Ex 2, Dual MDI, Formulation 3 (formoterol fumarate 6 μg/25 μl) + Formulation 4 (BDP 100 μg/25 μl, glycerol) mixed, single 0.22 mm orifice, mean, n=2) was 97.9 µg. For the same molecule, the “FPD ≦ 5 μm” value [1, 8] was 52.5 µg, the FPF [1, 8] was 53.6% and the MMAD [1, 8] was 2.5 μm. The “Delivered Dose” value ([1]; Ex 4, Dual-MDI, Formulation 6 (BDP 100 μg/25 μl, 26% ethanol) + Formulation 7 (100% HFA 134a, 25 μl), single 0.22 mm orifice, mean, n=2) was 86.4 µg, the “FPD ≦ 5 μm” value [1, 9] was 41.1 µg and the FPF [1, 9] was 47.5%. For the same molecule, the MMAD [1, 9] was 2.7 μm, the “FPD ≦ 5 μm” value [1, 10] was 26.7 µg and the FPF [1, 10] was 26.5%. The MMAD [1, 10] was 3.5 μm, the “Delivered Dose” value ([1]; Ex 4, Standard MDI, single can BDP 100 μg/25 μl, 26% w/w ethanol, 1.3% glycerol, 0.22 mm orifice, mean, n=2) was 100.6 µg and the “Delivered Dose” value [1, 11] was 49.4 µg. The “FPD ≦ 5 μm” value [1, 11] was 18.5 µg, the FPF [1, 11] was 37.3% and the MMAD [1, 11] was 2.6 μm. The “Delivered Dose” value [1, 12] was 38.2 µg, the “FPD ≦ 5 μm” value [1, 12] was 16.8 µg and the FPF [1, 12] was 44.1%. The MMAD [1, 12] was 1.9 μm, the “Delivered Dose” value [1, 13] was 45.5 µg and the “FPD ≦ 5 μm” value [1, 13] was 18.6 µg. For the same molecule, the FPF [1, 13] was 40.8%, the MMAD [1, 13] was 1.8 μm and the MMAD ([1]; Ex 6, single can configuration, 0.22 mm actuator, across metered volumes 25-100 μL) was 1.1-1.2 μm. For the same molecule, the “Delivered Dose” value ([1]; Ex 6, single can, 50 μg dose, metered volume 25 μL (Formulation 9 / 12), 0.22 mm actuator, mean, n=2) was 52.0 µg, the “FPD ≦ 5 μm” value [1, 14] was 31.1 µg and the FPF [1, 14] was 59.8%. The MMAD [1, 14] was 1.2 μm, the “Delivered Dose” value ([1]; Ex 6, single can, 50 μg dose, metered volume 50 μL (Formulation 10 / 13), 0.22 mm actuator, mean, n=2) was 45.6 µg and the “FPD ≦ 5 μm” value [1, 15] was 24.7 µg. For the same molecule, the FPF [1, 15] was 54.0%, the MMAD [1, 15] was 1.2 μm and the “Delivered Dose” value ([1]; Ex 6, single can, 50 μg dose, metered volume 100 μL (Formulation 11 / 14), 0.22 mm actuator, mean, n=2) was 48.8 µg. For the same molecule, the “FPD ≦ 5 μm” value [1, 16] was 19.2 µg, the FPF [1, 16] was 39.4% and the MMAD [1, 16] was 1.1 μm. For the same molecule, the “Delivered Dose” value ([1]; Ex 7, Dual can, Formulations 15+16 (both with glycerol, 50 μg/25 μl) fired simultaneously through dual orifice actuator (0.22 mm), mean, n=2) was 41.5 µg, the “FPD ≦ 5 μm” value [1, 17] was 12.7 µg and the FPF [1, 17] was 30.6%. The MMAD [1, 17] was 2.5 μm, the “FPD ≦ 5 μm” value [1, 18] was 17.0 µg and the FPF [1, 18] was 47.2%. The MMAD [1, 18] was 2.3 μm, the “Delivered Dose” value ([1]; Ex 7, Single can, fired individually through dual orifice actuator (0.22 mm), Formulation 15 inverted, Formulation 16 upright, mean, n=2) was 36.0 µg and the “Delivered Dose” value ([1]; Ex 9, Dual can, Formulation 17a (budesonide, glycerol) + 18a (BDP, no glycerol) simultaneously through dual orifice actuator, mean, n=2) was 40.8 µg. The “FPD ≦ 5 μm” value [1, 19] was 12.7 µg, the FPF [1, 19] was 31.1% and the MMAD [1, 19] was 1.5 μm. For the same molecule, the “FPD ≦ 5 μm” value [1, 20] was 16.2 µg, the FPF [1, 20] was 55.8% and the MMAD [1, 20] was 0.9 μm. For the same molecule, the “Delivered Dose” value ([1]; Ex 9, Single can, fired individually through dual orifice actuator, Formulation 17a inverted, 18a upright (50 μg/25 μL), mean, n=2) was 29.1 µg, the “Metered Dose” value ([1]; Ex 11, Dual can single orifice, Formulation 9 (BDP 50/25) + Formulation 12 (budesonide 50/25, glycerol), 0.30 mm orifice, mean, n=2) was 59.5 µg and the “Delivered Dose” value [1, 21] was 55.2 µg. It also gave an FPD [1, 21] of 16.3 µg, an FPF [1, 21] of 29.5% and an MMAD [1, 21] of 2.8 μm. The “Metered Dose” value ([1]; Ex 11, Single reservoir conventional MDI, 50 μg/50 μl (Formulation 10 / 13), 0.30 mm orifice, mean, n=2) was 52.7 µg, the “Delivered Dose” value [1, 22] was 47.1 µg and the FPD [1, 22] was 16.6 µg. The FPF [1, 22] was 35.2%, the MMAD [1, 22] was 1.3 μm and the MMAD ([1]; Ex 13, BDP formulation 25 μl delivered simultaneously with 100 μl budesonide formulation (glycerol), single 0.30 mm orifice) was 3.1 μm. The MMAD ([1]; Ex 13, conventional single reservoir MDI, 0.30 mm orifice) was 1.2 μm, the MMAD ([1]; Ex 14a/15, comparative, conventional single reservoir MDI, 0.22 mm orifice, 50 μl valves) was 1.3 μm and the MMAD ([1]; Ex 14a/15, dual reservoir-dual orifice, impingement angle 60°, orifice diameter 0.25 mm, separation distance 6.0 mm) was 2.3 μm. It also gave an actuator deposition ([1]; Ex 14a, 15° impingement, 6.0 mm separation, stated comparable to the standard actuator) of 6.1 µg, an MMAD ([1]; Ex 14a, dual reservoir-dual orifice, Formulations 9+12, impingement angle 60°, orifice diameter 0.25 mm, separation distance 17.5 mm) of 2.0 μm and an MMAD ([1]; Ex 14a, dual reservoir-dual orifice, impingement angle 15°, orifice diameter 0.25 mm, separation distance 6.0 mm) of 1.8 μm. It also gave an MMAD ([1]; Ex 14a, dual reservoir-dual orifice, impingement angle 60°, orifice diameter 0.25 mm, separation distance 9.0 mm) of 2.1 μm, an MMAD ([1]; Ex 14a, dual reservoir-dual orifice, impingement angle 60°, orifice diameter 0.30 mm, separation distance 2.0 mm) of 1.9 μm and an MMAD ([1]; Ex 15, dual reservoir, Formulations 9+12 through a single 0.30 mm diameter orifice) of 2.8 μm. For the same molecule, the “Delivered Dose” value [1, 23] was 67.6 µg, the FPD [1, 23] was 30.2 µg and the FPF [1, 23] was 44.7%. For the same molecule, the MMAD [1, 23] was 1.3 μm, the “Metered Dose” value ([1]; Ex 19, dual reservoir-single orifice prototype (FIG. 14B), BDP/Formoterol 100/6 μg/25 μl + glycopyrronium bromide 12.5 μg/25 μl) was 92.8 µg and the “Delivered Dose” value [1, 24] was 60.8 µg. The FPD [1, 24] was 21.2 µg, the FPF [1, 24] was 34.9% and the MMAD [1, 24] was 1.4 μm. The “Metered Dose” value ([1]; Ex 20, triple reservoir-single orifice prototype (FIG. 16B), BDP/Formoterol + glycopyrronium bromide + budesonide 50 μg/25 μl) was 85.9 µg, the Plume duration ([2]; valve size 25 μL (Formulation 18a BDP upright, 17a budesonide inverted)) was 0.317 s and the Plume duration ([2]; valve size 63 μL (Formulation 18b BDP upright, 17b budesonide inverted)) was 0.545 s.
